Test results: patent US8628750B2, “Cancer imaging and treatment” (Technische Universitat Munchen, priority 2006, dated 2014)
Where two headings read alike, the source gives them in different places. Numbered stars: 1 amine (or outer) side, 2 acyl side, 3 side chain; on linkers, the order of the positions; unused ones are H or OH. Square brackets hold non-standard residues; d marks the D form. Peptide text beside a SMILES is read from it. * marks the point of attachment. X3 = O=C(c1ccc(F)cc1)N(CCC[C@H](N[*:1])C(=O)[*:2])Cc1ccccc1; X1 = CN(CCC[C@H](C(=O)[*:2])N(C)[*:1])C(=O)c1ccc(F)cc1; X2 = O=C([C@H](CCCNCc1cccc2ccccc12)N[*:1])[*:2]; X4 = O=C([C@H](CCCNCc1ccc2ccccc2c1)N[*:1])[*:2]; 2Nal = N[C@@H](Cc1ccc2ccccc2c1)C(=O)O; Benzoyl(4-F) = O=C(c1ccc(F)cc1)*; dOrn = NCCC[C@@H](N)C(=O)O; Orn = NCCC[C@H](N)C(=O)O

Legend:
human CXCR4 [1] = biological target: T1, human CXCR4 (Homo sapiens, UniProt P61073)
T1 sequence (P61073 whole entry): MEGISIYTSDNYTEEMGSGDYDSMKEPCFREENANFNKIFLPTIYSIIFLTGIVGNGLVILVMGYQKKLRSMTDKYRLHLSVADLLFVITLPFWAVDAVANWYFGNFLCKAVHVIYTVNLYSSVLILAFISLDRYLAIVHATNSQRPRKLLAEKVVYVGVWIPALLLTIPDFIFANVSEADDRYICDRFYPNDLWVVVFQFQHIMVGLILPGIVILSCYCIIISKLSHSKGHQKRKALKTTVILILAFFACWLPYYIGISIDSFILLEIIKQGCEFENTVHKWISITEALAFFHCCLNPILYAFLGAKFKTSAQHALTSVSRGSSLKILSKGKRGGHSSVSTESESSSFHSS
Method: CXCR4 expression on the cell surface of trypsinized cells was determined using a phycoerythrine (PE)-labeled monoclonal rat antibody with specificity for human CXCR4 (1D9, BD Biosciences Pharmingen, Heidelberg, Germany). Trypsinized cells were washed with FACS buffer (PBS, 0.5% FCS) and 1×10^6 cells were stained with 0.5 μg antibody for 30 min. in the dark at 4° C. Cells were extensively washed with ice-cold FACS buffer and analyzed by flow cytometry. Nonspecific staining was assessed by PE-conjugated rat IgG2b,κ (BD Biosciences Pharmingen, Heidelberg, Germany). […] CXCR-4 staining was plotted against EGFP fluorescence (FL1).
(adapted from protocols published previously)[7, 8]; controls were incubated with diluent (PBS/0.1% BSA). Samples were immediately transferred to ice to avoid further internalization, centrifuged, washed with PBS/0.5% BSA and FACS staining for CXCR4 was performed as indicated above.

human CXCR4 [2] = biological target: T1, human CXCR4; test: cell-based; type: binding; parameters: Jurkat cells that endogenously express the CXCR4 receptor; endogenous in cells; host or cells: Jurkat (ATCC)
Method: For receptor binding assays cells were resuspended in PBS/0.2% BSA. A total of 200 μl of the suspension containing 400,000 cells (Jurkat, CMS5) or 200,000 cells (CMS5/CXCR4) were incubated with 25 μl of the tracer solution (containing 3.1 kBq, approx. 0.1 nM) and 25 μl of the diluent or the competitor at different concentrations. […] After shaking for 2 h at room temperature, the incubation was terminated by centrifugation at 700×g and 4° C. for 4 min. Cell pellets were washed once with cold PBS followed by a second centrifugation step or for internalization studies, two times with an acidic wash buffer (20 mM NaOAc, pH5.0). Cell bound radioactivity was determined by using a gamma counter. Experiments were repeated 2-3 times in duplicates or triplicates. IC50 values of the binding curves were calculated by nonlinear regression on a one-site or two-site competition based model using Prism 3.0 (Graph Pad Software, Inc, San Diego). KD and Bmax values were determined by nonlinear regression with the Prism 3.0 according to the manufacturer's protocol.

Compound	IC50 (human CXCR4 [2]) [nM]	other results
SDF-1α	–	cells stained positive for CXCR4 after pre-incubation (human CXCR4 [1]; CMS5/CXCR4 cells, 100 nM SDF-1α, 1 hr at 37° C., control-treated […]): 54.7%; mean fluorescence intensity of CXCR4 staining (human CXCR4 [1]; CMS5/CXCR4 cells, mock treated 209.0): 80.5; mean fluorescence intensity of CXCR4 staining (human CXCR4 [1]; Jurkat cells, drop from 385.4): 155.4; CXCR4-background staining (human CXCR4 [1]; parental CMS5 cells, in the presence of SDF-1α, from 7.9): 2.7%
CN(CCC[C@@H]1C(=O)N[C@@H](CCCNC(=N)N)C(=O)N[C@@H](Cc2ccc3ccccc3c2)C(=O)NCC(=O)N[C@H](Cc2ccc(O)cc2)C(=O)N1C)C(=O)c1ccc(F)cc1 [cyc[D-Tyr-(Me)D-Orn(Me,FB)-Arg-Nal-Gly]] (cyclo([2Nal]G[dY][X1]R))	59	–
N=C(N)NCCC[C@@H]1NC(=O)[C@H](CCCNC(=N)N)NC(=O)[C@@H](Cc2ccc(O)cc2)NC(=O)CNC(=O)[C@H](Cc2ccc3ccccc3c2)NC(=O)[C@H](Cc2ccc3ccccc3c2)NC1=O [BL 42, cyc[D-Tyr-Arg-Arg-Nal-Nal-Gly]] (cyclo([2Nal][2Nal]G[dY]RR))	> 1000	–
N=C(N)NCCC[C@@H]1NC(=O)[C@H](CCCNCc2cccc3ccccc23)NC(=O)[C@@H](Cc2ccc(O)cc2)NC(=O)CNC(=O)[C@H](Cc2ccc3ccccc3c2)NC1=O [cyc[D-Tyr-Orn(N1)-Arg-Nal-Gly]] (cyclo([dY][X2]R[2Nal]G))	40 ± 3	–
N=C(N)NCCC[C@@H]1NC(=O)[C@@H](CCCNC(=O)c2ccc(F)cc2)NC(=O)[C@@H](Cc2ccc(O)cc2)NC(=O)CNC(=O)[C@H](Cc2ccc3ccccc3c2)NC1=O [cyc[D-Tyr-D-Orn(FB)-Arg-Nal-Gly]] (cyclo([2Nal]G[dY][dOrn](Benzoyl(4-F))R))	86	–
N=C(N)NCCC[C@@H]1NC(=O)[C@H](CCCNC(=O)c2ccc(F)cc2)NC(=O)[C@@H](Cc2ccc(O)cc2)NC(=O)CNC(=O)[C@H](Cc2ccc3ccccc3c2)NC1=O [cyc[D-Tyr-Orn(FB)-Arg-Nal-Gly]] (cyclo([dY][Orn](Benzoyl(4-F))R[2Nal]G))	11	–
N=C(N)NCCC[C@@H]1NC(=O)[C@H](CCCN(Cc2ccccc2)C(=O)c2ccc(F)cc2)NC(=O)[C@@H](Cc2ccc(O)cc2)NC(=O)CNC(=O)[C@H](Cc2ccc3ccccc3c2)NC1=O [cyc[D-Tyr-Orn(Bz,FB)-Arg-Nal-Gly]] (cyclo([2Nal]G[dY][X3]R))	100	–
N=C(N)NCCC[C@@H]1NC(=O)[C@H](CCCNCc2ccc3ccccc3c2)NC(=O)[C@@H](Cc2ccc(O)cc2)NC(=O)CNC(=O)[C@H](Cc2ccc3ccccc3c2)NC1=O [cyc[D-Tyr-Orn(N2)-Arg-Nal-Gly]] (cyclo([dY][X4]R[2Nal]G))	49 ± 1	–
